Reference: patent US4691024A, “New mitomycin derivatives, preparation thereof and pharmaceutical compositions containing them” (priority 1984, dated 1987)
≈ marks a conversion by molar mass, not a printed value. Structures can show the parent of a compound that is named as a salt.

What was measured:
[1] = test system: Klebsiella pneumoniae ATCC 10031; test: microbe, parasite or virus in culture; type: cell-based; settings: ATCC10031, pH 7, read-out: MIC, Klebsiella pneumoniae (KP)
Excerpt: In this table, the following symbols are used:
KP: Klebsiella pneumoniae ATCC 10031

[2] = test system: Shigella sonnei ATCC 9290; test: Antibacterial activity, minimum growth inhibitory concentration by agar dilution method (SS); type: cell-based; settings: ATCC9290, pH 7, read-out: MIC, Shigella sonnei (SS)
Method: (§1) The various compounds of formula (I) of Examples 1-26 were tested for antibacterial activity against 6 microorganisms. […]. In this table, the following symbols are used:
SS: Shigella sonnei ATCC 9290

[3] = test system: Streptococcus faecalis ATCC 10541; test: Antibacterial activity, minimum growth inhibitory concentration by agar dilution method (SF); type: cell-based; settings: Enterococcus faecalis, ATCC10541, pH 7, read-out: MIC, Streptococcus faecalis (SF)
Method: as §1
SF: Streptococcus faecalis ATCC 10541

[4] = test system: Proteus vulgaris ATCC 6897; test: Antibacterial activity, minimum growth inhibitory concentration by agar dilution method (PV); type: cell-based; settings: ATCC6897, pH 7, read-out: MIC, Proteus vulgaris (PV)
Method: as §1
PV: Proteus vulgaris ATCC 6897

Sarcoma 180 solid tumour = test: Anti-tumour activity against Sarcoma 180 solid tumour in mice; type: in vivo; settings: Mus musculus, sc, 168 h; Sarcoma 180 s.c. in ddy mice; into tail vein 24 hours after implantation; volume at 7 days; read-out: ED50 (dose reducing tumour volume to 50% of control)
Method: (§2) The antitumour-activity and toxicity of various compounds of formula (I) were investigated as indicated below.
(1) Effect against Sarcoma 180 solid tumour cells
5×10^6 cells of Sarcoma 180 solid tumour were intraperitoneally implanted into ddy mice. 7 days later, ascites cells were sampled. The cells were washed once with a sterilized physiological solution of sodium chloride and were used to prepare a cell suspension containing 5×10^7 cells per ml. On each occasion, 0.1 ml of the cell suspension was subcutaneously implanted into the right arm pit of a male mouse (ddy strain; body weight 20±2 g). The test compound was dissolved in a physiological solution of sodium chloride with or without addition of Tween 80 and was administered into the tail vein of each mouse of a group consisting of 5 mice at a dose of 0.1-0.2 ml, 24 hours after the implantation of the tumour cells.
The anti-tumour activity was determined in the following manner. 7 days after the implantation, the major axis (a) and the minor axis (b) of the tumour were measured to calculate a value of "a×b^2 /2" which corresponds to the volume of the tumour. The anti-tumour activity was expressed by the ratio of the volume of the tumours (T) of the group of animals administered with the test compound to the corresponding volume of tumours (c) of the untreated animals.
(2) Determination of ED50
(The amount needed for reducing the volume of Sarcoma 180 solid tumours in mice to 50% on the basis of the corresponding volume of Sarcoma solid tumours in control untreated animals). On graph paper, T/C (the ratio of the volume of tumours of treated and control animals) was indicated by an arithmetic scale on the longitudinal axis and the administered amount of the test compound was indicated by a logarithmic scale on the lateral axis.
The relationship between the dose and T/C was shown by a straight line determined by the method of least squares, from which a dose corresponding to T/C of 0.5 was obtained.

[5] = Acute toxicity in mice (LD50, Behrens Kerber's method); settings: mouse, in vivo, ip; ddy mice, single intraperitoneal administration, 14 days observation
Method: as §2
Each animal of the test group consisting of 5 ddy mice was administered intraperitoneally once with a test compound. […] The LD50 was determined by Behrens Kerber's method.

[6] = test system: Staphylococcus aureus ATCC 6538P; test: Antibacterial activity, minimum growth inhibitory concentration by agar dilution method (SA); type: cell-based; settings: ATCC6538P, pH 7, read-out: MIC, Staphylococcus aureus (SA)
Method: as §1
SA: Staphylococcus aureus ATCC 6538P

Bacillus subtilis 10707 = test: Antibacterial activity, minimum growth inhibitory concentration by agar dilution method (BS); type: cell-based; settings: Bacillus subtilis, 10707, pH 7, read-out: MIC, Bacillus subtilis (BS)
Method: as §1
BS: Bacillus subtilis 10707

peripheral leucocytes = test: Effect on the peripheral leucocytes number in Sarcoma 180 bearing mice; type: in vivo; settings: Sarcoma 180 bearing ddy mice; intraperitoneal 24 hours after implantation; blood 4 days later
Method: as §2
(4) Effect on the peripheral leucocytes number
Sarcoma 180 solid tumour cells (5×10^6) were subcutaneously implanted into the right arm pit of each mouse (body weight 20±2 g) of a group consisting of 5 male mice (ddy strain). 24 hours after implantation, a test compound was intraperitoneally administered to each animal. 4 days later, blood (each 0.02 ml) was collected from the suborbital plexus vein of each tumour-carrying animal. The collected sample of the blood was dispersed in 9.98 ml of Cell-Kit Seven solution. One drop of saponin solution was added to the sample to dissolve erythrocytes, and then a microcell counter was used to measure the number of leucocytes. On a graph paper, the number of leucocytes was indicated on the y-axis by an arithmetic scale and the dose of the test compound was indicated on the x-axis by a logarithmic scale. The relationship between the number of peripheral leucocytes and the dosage of the test compound was plotted and the dosage corresponding to 4000 peripheral leucocytes/mm^3 (about 1/2 the number of leucocytes of normal mice) was obtained. This value is denoted in Table 5 by WBC4000.

[7] = Solubility in 0.03M phosphate buffered solution; type: physicochemical; settings: 0.03m phosphate buffer, aqueous buffer, pH 7.0, 23° C.
Method: The solubilities of Compound 5, Compound 14 and Compound 20 in 0.03M phosphate buffered solution (pH 7.0, 23° C.) were determined.

Row | Structure (SMILES) | MIC [1] [µg/mL] | MIC [2] [µg/mL] | MIC [3] [µg/mL] | MIC [4] [µg/mL] | ED50 (Sarcoma 180 solid tumour) [mg/kg] | LD50 at 336 h [5] [mg/kg] | MIC [6] [µg/mL] | MIC (Bacillus subtilis 10707) [µg/mL] | WBC4000 (dosage corresponding to 4000 peripheral leucocytes/mm^3) (peripheral leucocytes) [mg/kg] | solubility [7] [µg/mL]
1 | CO[C@@]12[C@H](COC(N)=O)C3=C(C(=O)C(C)=C(NCCSSc4cccc(N)c4)C3=O)N1C[C@@H]1N[C@@H]12 [Compound 3, 7-N-[2-(3-aminophenyldithio)ethyl]mitomycin C] | 0.63 (≈ 1.22 µM) | 20 (≈ 38.6 µM) | 0.04 (≈ 0.0773 µM) | 5 (≈ 9.66 µM) | 5 | 7.5 | 0.08 (≈ 0.155 µM) | < 0.01 | > 10 | –
2 | CO[C@@]12[C@H](COC(N)=O)C3=C(C(=O)C(C)=C(NCCSSc4ccc(N)cc4)C3=O)N1C[C@@H]1N[C@@H]12 [Compound 4, 7-N-[2-(4-aminophenyldithio)ethyl]mitomycin C] | 1.3 (≈ 2.51 µM) | > 20 | 0.04 (≈ 0.0773 µM) | 5 (≈ 9.66 µM) | 5.1 | 9 | 0.08 (≈ 0.155 µM) | 0.02 (≈ 0.0386 µM) | > 10 | –
3 | CO[C@@]12[C@H](COC(N)=O)C3=C(C(=O)C(C)=C(NCCSSc4ccc(NC(C)=O)cc4)C3=O)N1C[C@@H]1N[C@@H]12 [Compound 5, 7-N-[2-(4-Acetamidophenyldithio)ethyl]mitomycin C] | 0.16 (≈ 0.286 µM) | > 40 | 0.04 (≈ 0.0715 µM) | 5 (≈ 8.93 µM) | 8.5 | 30 | 0.02 (≈ 0.0357 µM) | 0.005 (≈ 0.00893 µM) | 14.2 | 52 (≈ 92.9 µM)
4 | CC(=O)Nc1ccc(SSCCNC2=C(C)C(=O)C3=C(C2=O)[C@H](COC(N)=O)[C@@]2(O)[C@@H]4[C@H](CN32)N4C)cc1 (stereo partly shown) [Compound 7, 7-N-[2-(4-Acetamidophenyldithio)ethyl]mitomycin D] | – | – | 5 (≈ 8.93 µM) | > 40 | > 25 | 46.3 | 10 (≈ 17.9 µM) | 5 (≈ 8.93 µM) | 45.5 | –
5 | COc1ccc(SSCCNC2=C(C)C(=O)C3=C(C2=O)[C@@H](COC(N)=O)[C@@]2(OC)[C@H]4N[C@H]4CN32)cc1 [Compound 9, 7-N-[2-(4-Methoxyphenyldithio)ethyl]mitomycin C] | 0.63 (≈ 1.18 µM) | 40 (≈ 75.1 µM) | < 0.02 | 1.3 (≈ 2.44 µM) | 7.4 | 5.3 | < 0.02 | < 0.02 | > 10 | –
6 | CO[C@@]12[C@H](COC(N)=O)C3=C(C(=O)C(C)=C(NCCSSc4ccc(Cl)cc4)C3=O)N1C[C@@H]1N[C@@H]12 [Compound 11, 7-N-[2-(4-Chlorophenyldithio)ethyl]mitomycin C] | 0.63 (≈ 1.17 µM) | 10 (≈ 18.6 µM) | 0.04 (≈ 0.0745 µM) | 0.63 (≈ 1.17 µM) | 4.5 | 9 | < 0.01 | < 0.01 | > 10 | –
7 | CO[C@@]12[C@H](COC(N)=O)C3=C(C(=O)C(C)=C(NCCSSc4ccc(F)cc4)C3=O)N1C[C@@H]1N[C@@H]12 [Compound 12, 7-N-[2-(4-Fluorophenyldithio)ethyl]mitomycin C] | 0.31 (≈ 0.595 µM) | 20 (≈ 38.4 µM) | < 0.02 | 0.63 (≈ 1.21 µM) | 3.5 | 6.8 | < 0.02 | < 0.02 | 10.4 | –
8 | CC1=C(NCCSSC[C@H](N)C(=O)O)C(=O)C2=C(C1=O)N1C[C@H]3[C@H](N3C)[C@]1(O)[C@H]2COC(N)=O (stereo partly drawn) [Compound 15, 7-N-[2-[(L-Cystein-S-yl)thio]ethyl]mitomycin D] | – | – | 13 (≈ 25.3 µM) | 13 (≈ 25.3 µM) | 54 | 135 | 13 (≈ 25.3 µM) | 6.3 (≈ 12.3 µM) | 81.9 | –
9 | CO[C@@]12[C@H](COC(N)=O)C3=C(C(=O)C(C)=C(NCCSSC(C)(C)[C@H](N)C(=O)O)C3=O)N1C[C@@H]1N[C@@H]12 [Compound 18, 7-N-[2-[(L-Pencillamin-S-yl)thio]ethyl]mitomycin C] | 0.08 (≈ 0.148 µM) | > 20 | 0.63 (≈ 1.16 µM) | 0.31 (≈ 0.572 µM) | 9.9 | 30 | 0.31 (≈ 0.572 µM) | 0.08 (≈ 0.148 µM) | 18.8 | –
10 | CO[C@@]12[C@H](COC(N)=O)C3=C(C(=O)C(C)=C(NCCSSC[C@H](NC(C)=O)C(=O)O)C3=O)N1C[C@@H]1N[C@@H]12 [Compound 19, 7-N-[2-[(N-Acetyl-L-cystein-S-yl)thio]ethyl]mitomycin C potassium salt] | 0.63 | > 20 | 1.3 | 2.5 | – | – | 0.63 | 0.08 | – | –
11 | CO[C@@]12[C@H](COC(N)=O)C3=C(C(=O)C(C)=C(NCCSSC[C@H](N)C(=O)NCC(=O)O)C3=O)N1C[C@@H]1N[C@@H]12 [Compound 20, 7-N-[2-[(Glycino-L-cystein-S-71)thio]ethyl]mitomycin C] | 0.63 (≈ 1.1 µM) | – | 0.63 (≈ 1.1 µM) | 5 (≈ 8.76 µM) | 9.6 | 27 | 0.31 (≈ 0.543 µM) | 0.08 (≈ 0.14 µM) | 20.5 | > 100000
12 | CC1=C(NCCSSC[C@H](N)C(=O)NCC(=O)O)C(=O)C2=C(C1=O)N1C[C@H]3[C@H](N3C)[C@]1(O)[C@H]2COC(N)=O (stereo partly drawn) [Compound 21, 7-N-[2-[(Glycino-L-cystein-S-yl)thio]ethyl]mitomycin D] | – | – | 13 (≈ 22.8 µM) | 13 (≈ 22.8 µM) | 61.1 | > 200 | 13 (≈ 22.8 µM) | 3.1 (≈ 5.43 µM) | 83.9 | –
13 | CO[C@@]12[C@H](COC(N)=O)C3=C(C(=O)C(C)=C(NCCSSC[C@H](NC(=O)CC[C@H](N)C(=O)O)C(=O)NCC(=O)O)C3=O)N1C[C@@H]1N[C@@H]12 [Compound 22, 7-N-[2-[(γ-L-Glutamyl-L-cysteinylglycin-S-yl)thio]ethyl]mitomycin C potassium salt] | 0.63 | > 20 | 1.3 | 2.5 | – | – | 0.31 | 0.08 | – | –
14 | CO[C@@]12[C@H](COC(N)=O)C3=C(C(=O)C(C)=C(NCCSSC(C)(C)[C@@H](N)C(=O)O)C3=O)N1C[C@@H]1N[C@@H]12 [Compound 28] | – | – | – | – | 8.2 | 26.3 | – | – | 16.3 | –
